PMC6720883, “In Vitro Inhibitory Effects of APINACA on Human Major Cytochrome P450, UDP-Glucuronosyltransferase Enzymes, and Drug Transporters” (Molecules, 2019)
Like-named read-outs stand apart in the source and are kept apart here.

How the values were obtained:
CYP1A2 = CYP1A2 (Homo sapiens, UniProt P05177); assay: Inhibition of CYP1A2-mediated phenacetin O-deethylase in ultrapooled human liver microsomes (cocktail, LC-MS/MS); type: in vitro ADME
Experimental: (§1) The inhibitory potentials (IC50 values) of APINACA and typical CYP inhibitors on CYP 1A2, 2A6, 2C8, 2C9, 2C19, 2D6, and 3A4 activities in pooled human liver microsomes were evaluated following our previous method using a cocktail of CYP substrates, followed by LC–MS/MS [43]. […] After 3 min of preincubation at 37 °C, the reaction mixtures were incubated for 15 min at 37 °C with the addition of NADPH in a shaking water bath. The reaction was stopped by adding 100 μL of ice cold methanol containing internal standards (d9-1′-hydroxybufuralol for 1′-hydroxybufuralol, 4′-hydroxydiclofenac, 7-hydroxycoumarin, 1′-hydroxymidazolam, and 4′-hydroxymephenytoin; ^13C2, ^15N-acetaminophen for acetaminophen and N-desethylamodiaquine). The incubation mixtures were centrifuged at 13,000× g for 8 min at 4 °C, and 50 μL of each supernatant was diluted with 50 μL of water. Aliquots (5 μL) of the diluted supernatants were analyzed by LC–MS/MS. All assays were performed in triplicate, and the average values were used for subsequent calculations.
(§2) To measure the time-dependent inhibition, human liver microsomes were preincubated with the various concentrations of APINACA (final concentrations of 0.1−100 μM) and NADPH for 30 min at 37 °C. Next, the reaction mixtures were incubated with a seven-CYP probe substrate cocktail or bupropion for 15 min at 37 °C. […]

BCRP = molecular target: T1, BCRP (Homo sapiens, UniProt Q9UNQ0); assay: B to A transport of [3-H]estrone-3-sulfate in LLC-PK1-BCRP cells; type: in vitro ADME; conditions: human, LLC-PK1-BCRP cell monolayers on filter membranes, probe [3H]estrone-3-sulfate (0.1 μM), B to A transport
T1 sequence (Q9UNQ0 1-655): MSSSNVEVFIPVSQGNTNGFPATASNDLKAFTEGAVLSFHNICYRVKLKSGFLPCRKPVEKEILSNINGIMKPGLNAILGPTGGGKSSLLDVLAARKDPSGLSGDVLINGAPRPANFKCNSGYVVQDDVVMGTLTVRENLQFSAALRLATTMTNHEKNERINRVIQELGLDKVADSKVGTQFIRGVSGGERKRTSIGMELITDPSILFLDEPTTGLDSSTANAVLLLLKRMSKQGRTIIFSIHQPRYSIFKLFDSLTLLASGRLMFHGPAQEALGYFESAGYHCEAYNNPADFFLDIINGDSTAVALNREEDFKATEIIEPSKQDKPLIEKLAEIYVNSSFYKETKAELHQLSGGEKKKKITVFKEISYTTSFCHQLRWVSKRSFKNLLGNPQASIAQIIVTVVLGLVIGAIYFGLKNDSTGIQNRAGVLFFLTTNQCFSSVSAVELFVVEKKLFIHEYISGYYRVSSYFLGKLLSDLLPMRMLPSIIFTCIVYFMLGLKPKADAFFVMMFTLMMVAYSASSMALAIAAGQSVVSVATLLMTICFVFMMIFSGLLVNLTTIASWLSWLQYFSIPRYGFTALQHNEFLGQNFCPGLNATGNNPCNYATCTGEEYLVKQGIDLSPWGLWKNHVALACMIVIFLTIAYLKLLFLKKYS

OAT1 = OAT1 (Homo sapiens, UniProt Q4U2R8); assay: Uptake of [3-H]para-aminohippuric acid in HEK293-OAT1 cells
Chain of OAT1 (Q4U2R8 whole entry): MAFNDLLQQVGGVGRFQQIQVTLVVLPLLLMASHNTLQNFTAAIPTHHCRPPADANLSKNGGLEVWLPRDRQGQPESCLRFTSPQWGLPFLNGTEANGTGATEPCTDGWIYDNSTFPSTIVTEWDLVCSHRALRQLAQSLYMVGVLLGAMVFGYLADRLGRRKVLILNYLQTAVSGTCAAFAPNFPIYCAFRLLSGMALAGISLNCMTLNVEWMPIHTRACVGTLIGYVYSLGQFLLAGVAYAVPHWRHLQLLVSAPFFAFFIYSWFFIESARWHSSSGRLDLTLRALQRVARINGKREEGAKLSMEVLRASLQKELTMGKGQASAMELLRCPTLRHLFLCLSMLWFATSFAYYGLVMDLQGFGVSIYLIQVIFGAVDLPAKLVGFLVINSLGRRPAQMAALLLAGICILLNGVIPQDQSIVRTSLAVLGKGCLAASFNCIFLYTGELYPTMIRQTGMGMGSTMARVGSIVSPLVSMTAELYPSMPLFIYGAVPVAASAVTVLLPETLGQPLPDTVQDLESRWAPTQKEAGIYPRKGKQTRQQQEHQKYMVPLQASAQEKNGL

CYP2C19 = CYP2C19 (Homo sapiens, UniProt P33261); assay: Inhibition of CYP2C19-mediated [S]-mephenytoin 4′-hydroxylase in ultrapooled human liver microsomes; type: in vitro ADME
Chain of CYP2C19 (P33261 whole entry): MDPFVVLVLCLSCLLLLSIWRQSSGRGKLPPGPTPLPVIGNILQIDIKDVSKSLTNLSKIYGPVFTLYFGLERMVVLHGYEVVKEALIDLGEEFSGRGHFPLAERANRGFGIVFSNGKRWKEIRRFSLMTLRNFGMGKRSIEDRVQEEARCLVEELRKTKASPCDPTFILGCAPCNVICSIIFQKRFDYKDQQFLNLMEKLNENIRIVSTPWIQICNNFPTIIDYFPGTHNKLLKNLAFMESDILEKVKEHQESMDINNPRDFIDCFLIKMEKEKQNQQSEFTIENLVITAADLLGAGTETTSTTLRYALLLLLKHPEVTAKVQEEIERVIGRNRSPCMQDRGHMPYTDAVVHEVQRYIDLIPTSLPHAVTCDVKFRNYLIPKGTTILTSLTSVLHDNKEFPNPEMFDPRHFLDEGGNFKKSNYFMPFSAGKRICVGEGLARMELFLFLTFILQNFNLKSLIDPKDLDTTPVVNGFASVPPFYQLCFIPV
Experimental: as §1, §2

OCT2 = molecular target: T2, OCT2 (Homo sapiens, UniProt O15244); assay: Uptake of [3-H]methyl-4-phenylpyridinium in HEK293-OCT2 cells; type: in vitro ADME
T2 construct: host or cells: HEK293 (transient overexpression)
T2 sequence (O15244 1-555): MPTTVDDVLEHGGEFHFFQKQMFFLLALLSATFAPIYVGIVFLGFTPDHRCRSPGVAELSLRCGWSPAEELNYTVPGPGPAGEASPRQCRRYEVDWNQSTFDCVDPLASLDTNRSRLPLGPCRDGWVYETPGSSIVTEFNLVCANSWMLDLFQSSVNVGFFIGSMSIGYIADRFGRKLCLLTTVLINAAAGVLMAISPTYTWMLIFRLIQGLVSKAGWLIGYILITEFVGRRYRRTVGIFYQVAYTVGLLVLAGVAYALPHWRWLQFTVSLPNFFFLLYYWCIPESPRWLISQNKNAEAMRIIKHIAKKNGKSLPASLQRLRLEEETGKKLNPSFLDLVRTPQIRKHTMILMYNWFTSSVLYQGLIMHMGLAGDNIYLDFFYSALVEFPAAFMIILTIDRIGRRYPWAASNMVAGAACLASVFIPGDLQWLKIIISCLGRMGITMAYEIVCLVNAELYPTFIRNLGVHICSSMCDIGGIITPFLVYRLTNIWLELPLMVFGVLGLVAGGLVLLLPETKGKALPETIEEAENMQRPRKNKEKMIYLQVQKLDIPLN
Experimental: To examine the effects of APINACA and typical inhibitors on transporter activity, the uptake of a probe substrate into HEK293 cells overexpressing the respective solute carrier transporters was measured in the presence of APINACA (final concentrations of 0–250 μM) or typical inhibitors for 5 min. The concentrations and probe substrates were selected as follows: 0.1 μM [3-H]MPP^+ (for OCT1 and OCT2), 0.1 μM [3-H]PAH (for OAT1), 0.1 μM [3-H]ES (for OAT3 and OATP1B1), and 0.1 μM [3-H]EG (for OATP1B3).
12.5 (Systat Software, Inc.; San Jose, CA, USA). […] 1.1 (Systat Software, Inc.).

Chain of CYP1A2 (P05177 whole entry): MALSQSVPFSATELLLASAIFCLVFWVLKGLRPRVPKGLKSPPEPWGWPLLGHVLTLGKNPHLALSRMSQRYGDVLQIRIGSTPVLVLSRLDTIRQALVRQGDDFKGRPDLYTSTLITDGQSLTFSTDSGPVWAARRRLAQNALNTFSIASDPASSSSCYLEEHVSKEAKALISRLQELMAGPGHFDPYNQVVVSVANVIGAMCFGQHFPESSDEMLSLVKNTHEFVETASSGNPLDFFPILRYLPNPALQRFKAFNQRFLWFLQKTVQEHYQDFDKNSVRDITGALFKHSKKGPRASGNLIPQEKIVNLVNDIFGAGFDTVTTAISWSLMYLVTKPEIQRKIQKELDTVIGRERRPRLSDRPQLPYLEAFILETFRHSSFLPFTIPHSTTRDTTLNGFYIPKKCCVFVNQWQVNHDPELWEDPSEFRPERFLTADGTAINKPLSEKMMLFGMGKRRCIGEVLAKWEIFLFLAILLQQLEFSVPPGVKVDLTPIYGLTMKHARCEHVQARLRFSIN

CCCCCn1nc(C(=O)NC23CC4CC(CC(C4)C2)C3)c2ccccc21 [APINACA, N-(1-adamantyl)-1-pentyl-1H-indazole-3-carboxamide]
IC50 (CYP1A2): > 100 µM
IC50 (CYP1A2; read-out: IC50 (μM) With Preincubation, CYP1A2 phenacetin O-deethylase, ultrapooled human liver microsomes, 30-min preincubation with NADPH): > 100 µM
IC50 (BCRP): > 100 µM
IC50 (OAT1): > 250 µM
IC50 (CYP2C19): > 100 µM
IC50 (CYP2C19; read-out: IC50 (μM) With Preincubation, CYP2C19 [S]-mephenytoin 4′-hydroxylase, ultrapooled human liver microsomes, 30-min preincubation with NADPH): > 100 µM
IC50 (OCT2): > 250 µM
